Source: paper PMC5218480 (PLoS ONE, 2017)

System: MV-4-11 cells
Experiment: Gene expression microarray analysis (Affymetrix PrimeView) and GSEA
Format: cell-based, human
Set-up: RFU PODN (11730768_x_at) / Fold change /veh PODN (11730768_x_at) / RFU LINC00158 (11744669_a_at) / Fold change /veh LINC00158 (11744669_a_at) / RFU DUSP10 (11751237_a_at) / Fold change /veh DUSP10 (11751237_a_at) / RFU ID3 (11757404_x_at) / Fold change /veh ID3 (11757404_x_at) / RFU PLEKHG5 (11737974_s_at) / Fold change /veh PLEKHG5 (11737974_s_at) / RFU LRRC4B (11730491_at) / Fold change /veh LRRC4B (11730491_at) / RFU GIMAP4 (11747438_a_at) / Fold change /veh GIMAP4 (11747438_a_at) / RFU KRT8 (11758183_x_at) / Fold change /veh KRT8 (11758183_x_at) / RFU CNN1 (11734310_a_at) / Fold change /veh CNN1 (11734310_a_at) / RFU VPS37D (11726825_at) / Fold change /veh VPS37D (11726825_at) / RFU C10orf10 (11716522_x_at) / Fold change /veh C10orf10 (11716522_x_at) / RFU KIR2DL2 /// KIR2DL4 /// KIR2DL5A /// KIR2DL5B /// KIR2DS1 /// KIR2DS2 /// KIR2DS3 /// KIR2DS4 /// KIR3DL3 /// KIR3DL3 /// KIR3DS1 (11738374_at) / Fold change /veh KIR2DL2 /// KIR2DL4 /// KIR2DL5A /// KIR2DL5B /// KIR2DS1 /// KIR2DS2 /// KIR2DS3 /// KIR2DS4 /// KIR3DL3 /// KIR3DL3 /// KIR3DS1 (11738374_at) / RFU C1QL1 (11718748_at) / Fold change /veh C1QL1 (11718748_at) / RFU TMPRSS4 (11747572_a_at) / Fold change /veh TMPRSS4 (11747572_a_at) / RFU HAMP (11756126_x_at) / Fold change /veh HAMP (11756126_x_at) / RFU RNFT2 (11725882_a_at) / Fold change /veh RNFT2 (11725882_a_at) / RFU NR4A2 (11747474_a_at) / Fold change /veh NR4A2 (11747474_a_at) / RFU ABCC12 (11746883_a_at) / Fold change /veh ABCC12 (11746883_a_at) / RFU TMEM136 (11760407_x_at) / Fold change /veh TMEM136 (11760407_x_at) / RFU CLDN22 /// WWC2 (11732394_at) / Fold change /veh CLDN22 /// WWC2 (11732394_at) / RFU HLA-DPB1 (11760878_x_at) / Fold change /veh HLA-DPB1 (11760878_x_at) / RFU SPINT1 (11716480_a_at) / Fold change /veh SPINT1 (11716480_a_at) / RFU GAP43 (11754022_s_at) / Fold change /veh GAP43 (11754022_s_at) / RFU A4GNT (11735810_at) / Fold change /veh A4GNT (11735810_at) / RFU PRB3 (11715151_x_at) / Fold change /veh PRB3 (11715151_x_at) / RFU TUBB4B (11761932_at) / Fold change /veh TUBB4B (11761932_at) / RFU CAPN14 (11732068_a_at) / Fold change /veh CAPN14 (11732068_a_at) / RFU TMCC2 (11721928_a_at) / Fold change /veh TMCC2 (11721928_a_at) / RFU IRGQ (11745062_a_at) / Fold change /veh IRGQ (11745062_a_at) / RFU FAM174B (11720279_a_at) / Fold change /veh FAM174B (11720279_a_at) / RFU TMPRSS4 (11748680_a_at) / Fold change /veh TMPRSS4 (11748680_a_at) / RFU FAM212B (11763350_a_at) / Fold change /veh FAM212B (11763350_a_at) / RFU PLEKHG5 (11743358_a_at) / Fold change /veh PLEKHG5 (11743358_a_at) / RFU ZSCAN30 (11745921_a_at) / Fold change /veh ZSCAN30 (11745921_a_at) / RFU CMKLR1 (11741424_a_at) / Fold change /veh CMKLR1 (11741424_a_at) / RFU LOC101060620 /// MAPK8IP1 (11723275_at) / Fold change /veh LOC101060620 /// MAPK8IP1 (11723275_at) / RFU SPTSSB (11747773_x_at) / Fold change /veh SPTSSB (11747773_x_at) / RFU PRSS12 (11739890_at) / Fold change /veh PRSS12 (11739890_at) / RFU BIN1 (11741810_x_at) / Fold change /veh BIN1 (11741810_x_at) / RFU WNT11 (11732464_a_at) / Fold change /veh WNT11 (11732464_a_at) / RFU C10orf10 (11716521_a_at) / Fold change /veh C10orf10 (11716521_a_at) / RFU C5orf56 (11738089_at) / Fold change /veh C5orf56 (11738089_at) / RFU CYB561 (11721691_x_at) / Fold change /veh CYB561 (11721691_x_at) / RFU ANKRD19P (11752326_a_at) / Fold change /veh ANKRD19P (11752326_a_at) / RFU OR2T12 /// OR2T33 /// OR2T8 (11738714_s_at) / Fold change /veh OR2T12 /// OR2T33 /// OR2T8 (11738714_s_at) / RFU VCAN (11748164_a_at) / Fold change /veh VCAN (11748164_a_at) / RFU JSRP1 (11732532_at) / Fold change /veh JSRP1 (11732532_at) / RFU KRTAP10-11 (11738290_x_at) / Fold change /veh KRTAP10-11 (11738290_x_at) / RFU MYO3A (11730013_a_at) / Fold change /veh MYO3A (11730013_a_at) / RFU EBF3 (11725865_a_at) / Fold change /veh EBF3 (11725865_a_at) / RFU CAMK2N1 (11719241_x_at) / Fold change /veh CAMK2N1 (11719241_x_at) / RFU C5orf56 (11738088_a_at) / Fold change /veh C5orf56 (11738088_a_at) / RFU OLFML3 (11715873_a_at) / Fold change /veh OLFML3 (11715873_a_at) / RFU LOC100653217 /// NTM (11731650_a_at) / Fold change /veh LOC100653217 /// NTM (11731650_a_at) / RFU MAPK11 (11762145_a_at) / Fold change /veh MAPK11 (11762145_a_at) / RFU FIZ1 (11724087_x_at) / Fold change /veh FIZ1 (11724087_x_at) / RFU OASL (11726364_x_at) / Fold change /veh OASL (11726364_x_at) / RFU SOX15 (11748057_x_at) / Fold change /veh SOX15 (11748057_x_at) / RFU CD79A (11719716_a_at) / Fold change /veh CD79A (11719716_a_at) / RFU HIST1H1D (11736915_at) / Fold change /veh HIST1H1D (11736915_at) / RFU CASKIN2 (11723855_a_at) / Fold change /veh CASKIN2 (11723855_a_at) / RFU LOC730098 (11760151_x_at) / Fold change /veh LOC730098 (11760151_x_at) / RFU OR4N2 (11742367_at) / Fold change /veh OR4N2 (11742367_at) / RFU PRRT2 (11749266_a_at) / Fold change /veh PRRT2 (11749266_a_at) / RFU SNX32 (11753110_a_at) / Fold change /veh SNX32 (11753110_a_at) / RFU CDHR5 (11726645_a_at) / Fold change /veh CDHR5 (11726645_a_at) / RFU RCAN1 (11760418_a_at) / Fold change /veh RCAN1 (11760418_a_at) / RFU FAM167A (11723789_a_at) / Fold change /veh FAM167A (11723789_a_at) / RFU FAM26E (11764081_at) / Fold change /veh FAM26E (11764081_at) / RFU ISYNA1 (11749810_s_at) / Fold change /veh ISYNA1 (11749810_s_at) / RFU ACY1 (11761880_at) / Fold change /veh ACY1 (11761880_at) / RFU 11764098_at / Fold change /veh 11764098_at / RFU SAMD14 (11745864_x_at) / Fold change /veh SAMD14 (11745864_x_at) / RFU NPB (11741838_a_at) / Fold change /veh NPB (11741838_a_at) / RFU TMPRSS6 (11731388_a_at) / Fold change /veh TMPRSS6 (11731388_a_at) / RFU KRTAP10-2 (11738614_at) / Fold change /veh KRTAP10-2 (11738614_at) / RFU ARHGAP8 /// PRR5-ARHGAP8 (11727945_x_at) / Fold change /veh ARHGAP8 /// PRR5-ARHGAP8 (11727945_x_at) / RFU KRTAP5-7 /// NADSYN1 (11734609_at) / Fold change /veh KRTAP5-7 /// NADSYN1 (11734609_at) / RFU RASL12 (11751679_a_at) / Fold change /veh RASL12 (11751679_a_at) / RFU CDKN2B (11736163_a_at) / Fold change /veh CDKN2B (11736163_a_at) / RFU PRF1 (11729649_at) / Fold change /veh PRF1 (11729649_at) / RFU, ZNF638 /// ZNF638-IT1 / Fold change vs veh, ZNF638 /// ZNF638-IT1 / RFU, PANK3 / Fold change vs veh, PANK3 / RFU, SH3YL1 / Fold change vs veh, SH3YL1 / RFU, ZEB2 / Fold change vs veh, ZEB2 / RFU, NRIP1 / Fold change vs veh, NRIP1 / RFU, PTTG1IP / Fold change vs veh, PTTG1IP / RFU, CAPN2 / Fold change vs veh, CAPN2 / RFU, MED14 / Fold change vs veh, MED14 / RFU, SNORA58 / Fold change vs veh, SNORA58 / RFU, C1orf63 / Fold change vs veh, C1orf63 / RFU, LRRFIP1 / Fold change vs veh, LRRFIP1 / RFU, NDUFAF7 / Fold change vs veh, NDUFAF7 / RFU, SLC12A2 / Fold change vs veh, SLC12A2 / RFU, IBTK / Fold change vs veh, IBTK / RFU, ESF1 / Fold change vs veh, ESF1 / Fold change vs veh, TMEM50B / RFU, TAOK1 / Fold change vs veh, TAOK1 / RFU, ACBD3 / Fold change vs veh, ACBD3 / RFU, TMA16 / Fold change vs veh, TMA16 / RFU, RWDD3 / Fold change vs veh, RWDD3 / RFU, BCAT1 / Fold change vs veh, BCAT1 / RFU, EDEM3 / Fold change vs veh, EDEM3 / RFU, TMEM33 / Fold change vs veh, TMEM33 / RFU, WDR75 / Fold change vs veh, WDR75 / RFU, AHCTF1 / Fold change vs veh, AHCTF1 / RFU, TFRC / Fold change vs veh, TFRC / RFU, ZDHHC17 / Fold change vs veh, ZDHHC17 / RFU, NOM1 / Fold change vs veh, NOM1 / RFU, ARL8B / Fold change vs veh, ARL8B / RFU, ZBTB11 / Fold change vs veh, ZBTB11 / RFU, TAMM41 / Fold change vs veh, TAMM41 / RFU, KIAA1704 /// LOC100996395 / Fold change vs veh, KIAA1704 /// LOC100996395 / RFU, ING1 / Fold change vs veh, ING1 / RFU, TRMT61B / Fold change vs veh, TRMT61B / RFU, FUBP3 / Fold change vs veh, FUBP3 / RFU, TP53 / Fold change vs veh, TP53 / RFU, TNKS2 / Fold change vs veh, TNKS2 / RFU, ZFP14 / Fold change vs veh, ZFP14 / RFU, ACTR2 / Fold change vs veh, ACTR2 / RFU, PPP3R1 / Fold change vs veh, PPP3R1 / RFU, PIK3R1 / Fold change vs veh, PIK3R1 / RFU, HNRNPA1 / Fold change vs veh, HNRNPA1 / RFU, RNF170 / Fold change vs veh, RNF170 / RFU, ZNF28 / Fold change vs veh, ZNF28 / RFU, RNGTT / Fold change vs veh, RNGTT / RFU, OGT / Fold change vs veh, OGT / RFU, BRD1 / Fold change vs veh, BRD1 / RFU, MARS / Fold change vs veh, MARS / RFU, ZNF655 / Fold change vs veh, ZNF655 / RFU, FAHD1 / Fold change vs veh, FAHD1 / RFU, BDP1 / Fold change vs veh, BDP1 / RFU, LRRCC1 / Fold change vs veh, LRRCC1 / RFU, ARID1A / Fold change vs veh, ARID1A / RFU, ZNF146 / Fold change vs veh, ZNF146 / RFU, ZNF330 / Fold change vs veh, ZNF330 / RFU, GPN3 / Fold change vs veh, GPN3 / RFU, C9orf123 / Fold change vs veh, C9orf123 / RFU, N4BP2L2 / Fold change vs veh, N4BP2L2 / RFU, ARFIP1 / Fold change vs veh, ARFIP1 / RFU, FAM179B / Fold change vs veh, FAM179B / RFU, BCL10 / Fold change vs veh, BCL10 / RFU, UHRF1BP1L / Fold change vs veh, UHRF1BP1L / RFU, BET1 / Fold change vs veh, BET1 / RFU, CNOT2 / Fold change vs veh, CNOT2 / RFU, ZNF268 / Fold change vs veh, ZNF268 / Fold change vs veh, ZNF507 / RFU, DGCR2 / Fold change vs veh, DGCR2 / RFU, WDSUB1 / Fold change vs veh, WDSUB1 / Fold change vs veh, HSP90B1 /// MIR3652 / RFU, ADSS / Fold change vs veh, ADSS / RFU, GK / Fold change vs veh, GK / RFU, ZNF148 / Fold change vs veh, ZNF148 / RFU, TAF9 / Fold change vs veh, TAF9 / RFU, SLC1A5 / Fold change vs veh, SLC1A5 / RFU, SLMO2 / Fold change vs veh, SLMO2 / RFU, ABCC4 / Fold change vs veh, ABCC4 / RFU, LOC101060439 /// RAP1B / Fold change vs veh, LOC101060439 /// RAP1B / RFU, RFX7 / Fold change vs veh, RFX7 / RFU, GTPBP10 / Fold change vs veh, GTPBP10 / RFU, CNEP1R1 / Fold change vs veh, CNEP1R1 / RFU, BIVM-ERCC5 /// ERCC5 / Fold change vs veh, BIVM-ERCC5 /// ERCC5 / RFU, ILF3 / Fold change vs veh, ILF3 / RFU 11762660_at / Fold change /veh 11762660_at / RFU VCAN (11757783_s_at) / Fold change /veh VCAN (11757783_s_at) / RFU DDX43 (11728927_at) / Fold change /veh DDX43 (11728927_at) / RFU KRT8 (11758188_x_at) / Fold change /veh KRT8 (11758188_x_at) / RFU NKD1 (11759106_at) / Fold change /veh NKD1 (11759106_at) / RFU SRD5A1 (11742802_a_at) / Fold change /veh SRD5A1 (11742802_a_at) / RFU TPSAB1 /// TPSB2 (11721975_s_at) / Fold change /veh TPSAB1 /// TPSB2 (11721975_s_at) / RFU GSTM3 (11746129_a_at) / Fold change /veh GSTM3 (11746129_a_at) / RFU IL23R (11737362_x_at) / Fold change /veh IL23R (11737362_x_at) / RFU TMEM51 (11727254_a_at) / Fold change /veh TMEM51 (11727254_a_at) / RFU PIWIL2 (11732686_x_at) / Fold change /veh PIWIL2 (11732686_x_at) / RFU ORM1 (11744905_x_at) / Fold change /veh ORM1 (11744905_x_at) / RFU CCDC152 (11743942_at) / Fold change /veh CCDC152 (11743942_at) / RFU ECM1 (11717891_a_at) / Fold change /veh ECM1 (11717891_a_at) / RFU IL23R (11748794_a_at) / Fold change /veh IL23R (11748794_a_at) / RFU TNFAIP8L3 (11732012_x_at) / Fold change /veh TNFAIP8L3 (11732012_x_at) / RFU MBOAT4 (11741988_at) / Fold change /veh MBOAT4 (11741988_at) / RFU 11764193_at / Fold change /veh 11764193_at / RFU TMEM53 (11763286_at) / Fold change /veh TMEM53 (11763286_at) / RFU MAGEB2 (11727129_at) / Fold change /veh MAGEB2 (11727129_at) / RFU TMEM200A (11744735_a_at) / Fold change /veh TMEM200A (11744735_a_at) / RFU CCDC152 (11751479_a_at) / Fold change /veh CCDC152 (11751479_a_at) / RFU FAM211A (11726209_a_at) / Fold change /veh FAM211A (11726209_a_at) / RFU RGS16 (11746705_a_at) / Fold change /veh RGS16 (11746705_a_at) / RFU VCAN (11755009_s_at) / Fold change /veh VCAN (11755009_s_at) / RFU RHOB (11743442_s_at) / Fold change /veh RHOB (11743442_s_at) / RFU RGS16 (11720943_a_at) / Fold change /veh RGS16 (11720943_a_at) / RFU RGS16 (11720944_at) / Fold change /veh RGS16 (11720944_at) / RFU, VPS4B / Fold change vs veh, VPS4B / RFU, CREB1 / Fold change vs veh, CREB1 / RFU, DNAJC13 / Fold change vs veh, DNAJC13 / RFU, GNAQ / Fold change vs veh, GNAQ / RFU, CDK5R1 / Fold change vs veh, CDK5R1 / RFU, ZRANB3 / Fold change vs veh, ZRANB3 / RFU, CUL4A / Fold change vs veh, CUL4A / RFU, CCNY / Fold change vs veh, CCNY / RFU, UFL1 / Fold change vs veh, UFL1 / RFU, COG3 / Fold change vs veh, COG3 / RFU, DIAPH2 / Fold change vs veh, DIAPH2 / RFU, SKA2 / Fold change vs veh, SKA2 / RFU, AFF3 / Fold change vs veh, AFF3 / RFU, LMF1 / Fold change vs veh, LMF1 / RFU, IPO11 / Fold change vs veh, IPO11 / RFU, DFFB / Fold change vs veh, DFFB / RFU, FOXP1 / Fold change vs veh, FOXP1 / RFU, CARD8 / Fold change vs veh, CARD8 / RFU, STRN3 / Fold change vs veh, STRN3 / RFU, ADK / Fold change vs veh, ADK / RFU, RASSF2 / Fold change vs veh, RASSF2 / RFU, WIPF1 / Fold change vs veh, WIPF1 / RFU, LARP1B / Fold change vs veh, LARP1B / RFU, RASA1 / Fold change vs veh, RASA1 / RFU, RB1 / Fold change vs veh, RB1 / RFU, PPFIA1 / Fold change vs veh, PPFIA1 / RFU, MAT2A / Fold change vs veh, MAT2A / RFU, CCT5 / Fold change vs veh, CCT5 / RFU, WDR92 / Fold change vs veh, WDR92 / RFU, CUX1 / Fold change vs veh, CUX1 / RFU, TTC7A / Fold change vs veh, TTC7A / RFU, TMEM135 / Fold change vs veh, TMEM135 / RFU, DEPTOR / Fold change vs veh, DEPTOR / RFU, CPM / Fold change vs veh, CPM / RFU, DNAJB6 / Fold change vs veh, DNAJB6 / RFU, CACNA2D3 / Fold change vs veh, CACNA2D3 / RFU, DTX4 / Fold change vs veh, DTX4 / RFU, TFCP2 / Fold change vs veh, TFCP2 / RFU, GMCL1 /// GMCL1P1 / Fold change vs veh, GMCL1 /// GMCL1P1 / RFU, AEBP2 / Fold change vs veh, AEBP2 / RFU, SNHG1 /// SNORD22 /// SNORD25 /// SNORD26 /// SNORD27 /// SNORD28 /// SNORD29 /// SNORD31 / Fold change vs veh, SNHG1 /// SNORD22 /// SNORD25 /// SNORD26 /// SNORD27 /// SNORD28 /// SNORD29 /// SNORD31 / Fold change (Aza/veh), C12orf56 (ProbeSet 11735607_a_at) / Fold change (ACY-1035/veh), C12orf56 (ProbeSet 11735607_a_at) / Fold change (Aza/veh), FGFR1OP (ProbeSet 11751329_s_at) / Fold change (ACY-1035/veh), FGFR1OP (ProbeSet 11751329_s_at) / Fold change (Aza/veh), VPS36 (ProbeSet 11739960_a_at) / Fold change (ACY-1035/veh), VPS36 (ProbeSet 11739960_a_at) / RFU SYPL1 (11715823_x_at) / Fold change /veh SYPL1 (11715823_x_at) / RFU IGFBP7 (11715501_s_at) / Fold change /veh IGFBP7 (11715501_s_at) / RFU REEP3 (11722064_at) / Fold change /veh REEP3 (11722064_at) / RFU IGLL1 (11728026_x_at) / Fold change /veh IGLL1 (11728026_x_at): dose or concentration left out as unconfirmed
Settings: ProbeSet 11717308_a_at; LIST B

Nc1ccc(-c2cccs2)cc1NC(=O)c1ccc2c(c1)cc(C1CC1)n2CCN1CCOCC1 [ACY-1035]
Fold change vs veh, WDR75: 0.92
